How the values were obtained:
Experiment in all cases: Test E greenhouse herbicide test, pre- and postemergence
Type in all cases: in vivo
[1] = tested on: arrowleaf sida (Sida rhombifolia)
Description: (§1) Seeds of plant species selected from corn (Zea mays), soybean (Glycine max), velvetleaf (Abutilon theophrasti), lambsquarters (Chenopodium album), wild poinsettia (Euphorbia heterophylla), pigweed, palmer (palmer pigweed, Amaranthus palmeri), waterhemp (common waterhemp, Amaranthus rudis), surinam grass (Brachiaria decumbens), crabgrass, large (large crabgrass, Digitaria sanguinalis), crabgrass, Brazilian (Brazilian crabgrass, Digitaria horizontalis), panicum, fall (fall panicum, Panicum dichotomiflorum), foxtail, giant (giant foxtail, Setaria faberii), foxtail, green (green foxtail, Setaria viridis), goosegrass (Eleusine indica), johnsongrass (Sorghum halepense), ragweed (common ragweed, Ambrosia elatior), barnyardgrass (Echinochloa crus-galli), sandbur (southem sandbur, Cenchrus echinatus), arrowleaf sida (Sida rhombifolia), Italian ryegrass (Lolium multiflorum), dayflower (Virginia (VA) dayflower, Commelina virginica), field bindweed (Convolvulus arvensis), momingglory (Ipomoea coccinea), nightshade (eastern black nightshade, Solanum ptycanthum), kochia (Kochia scoparia), nutsedge, yellow (yellow nutsedge, Cyperus esculentus), horseweed (Conyza canadensis), and beggarticks (hairy beggarticks, Bidens pilosa), were planted into a silt loam soil and treated preemergence with test chemicals formulated in a non-phytotoxic solvent mixture which included a surfactant.
(§2) At the same time, plants from these crop and weed species and also waterhemp_RES1, (ALS & Triazine resistant common waterhemp, Amaranthus rudis), and waterhemp_RES2, (ALS & HPPD resistant common waterhemp, Amaranthus rudis) were planted in pots containing Redi-Earth® planting medium (Scotts Company, 14111 Scottslawn Road, Marysville, Ohio 43041) comprising spaghnum peat moss, vermiculite, wetting agent and starter nutrients were treated with postemergence applications of test chemicals formulated in the same manner. Plants ranged in height from 2 to 18 cm for postemergence treatments (1- to 4-leaf stage). Treated plants and controls were maintained in a greenhouse for 14 to 21 d, after which time all species were compared to controls and visually evaluated. Plant response ratings, summarized in Table E, are based on a scale of 0 to 100 where 0 is no effect and 100 is complete control. A dash (-) response means no test result.

[2] = tested on: barnyardgrass (Echinochloa crus-galli)
Description: as §1, §2

[3] = tested on: crabgrass, Brazilian (Brazilian crabgrass, Digitaria horizontalis)
Description: as §1, §2

[4] = tested on: crabgrass, large (large crabgrass, Digitaria sanguinalis); settings: Preemergence
Description: as §1, §2

[5] = tested on: field bindweed (Convolvulus arvensis)
Description: as §1, §2

[6] = tested on: foxtail, giant (giant foxtail, Setaria faberii); settings: Preemergence
Description: as §1, §2

[7] = tested on: goosegrass (Eleusine indica); settings: Preemergence
Description: as §1, §2

[8] = tested on: horseweed (Conyza canadensis); settings: Postemergence
Description: as §1, §2

[9] = tested on: johnsongrass (Sorghum halepense); settings: Preemergence
Description: as §1, §2

[10] = tested on: momingglory (Ipomoea coccinea); settings: Preemergence
Description: as §1, §2

[11] = tested on: nightshade (eastern black nightshade, Solanum ptycanthum); settings: Preemergence
Description: as §1, §2

[12] = tested on: panicum, fall (fall panicum, Panicum dichotomiflorum)
Description: as §1, §2

[13] = tested on: pigweed, palmer (palmer pigweed, Amaranthus palmeri)
Description: as §1, §2

[14] = tested on: ragweed (common ragweed, Ambrosia elatior)
Description: as §1, §2

soybean (Glycine max) = tested on: soybean (Glycine max)
Description: as §1, §2

[15] = tested on: surinam grass (Brachiaria decumbens); settings: Preemergence
Description: as §1, §2

[16] = 62 g ai/ha, Postemergence, scale 0 to 100 (0 no effect, 100 complete control)
[17] = 62 g ai/ha, Preemergence, scale 0 to 100 (0 no effect, 100 complete control)
[18] = 125 g ai/ha, Postemergence, scale 0 to 100 (0 no effect, 100 complete control)
[19] = 250 g ai/ha, Postemergence, scale 0 to 100 (0 no effect, 100 complete control)
[20] = Postemergence, 31 g ai/ha, visual, scale 0 no effect to 100 complete control
[21] = Preemergence, 31 g ai/ha, scale 0 to 100, 0 no effect, 100 complete control
[22] = Preemergence, 125 g ai/ha, visual, scale 0 no effect to 100 complete control
[23] = Preemergence, 250 g ai/ha, visual, scale 0 no effect to 100 complete control
[24] = 62 g ai/ha, scale 0 to 100 (0 no effect, 100 complete control)
[25] = 31 g ai/ha, scale 0 to 100, 0 no effect, 100 complete control
[26] = 125 g ai/ha, visual, scale 0 no effect to 100 complete control
[27] = 250 g ai/ha, visual, scale 0 no effect to 100 complete control
[28] = 125 g ai/ha, scale 0 to 100 (0 no effect, 100 complete control)
[29] = 125 g ai/ha, Preemergence, scale 0 to 100 (0 no effect, 100 complete control)

CCc1sc2ccc(C)cc2c1-c1c(O)c(C)nn(C)c1=O [Compound 47]
100: Plant response rating, Field Bindweed [5, 23] | Plant response rating, Morningglory [10, 28] | Plant response rating, Morningglory [10, 27] | Plant response rating, Nightshade [11, 28] | Plant response rating, Nightshade [11, 27] | Plant response rating, Ragweed [14, 23]
40: Plant response rating, Arrowleaf Sida [1, 20] | Plant response rating, Barnyardgrass [2, 18] | Plant response rating, Crabgrass, Brazil [3, 19] | Plant response rating, Foxtail, Giant [6, 26] | Plant response rating, Horseweed [8, 24] | Plant response rating, Horseweed ([8]; 31 g ai/ha, visual, scale 0 no effect to 100 complete control) | Plant response rating, Panicum, Fall [12, 20] | Plant response rating, Soybean (soybean (Glycine max); [23])
25: Plant response rating, Crabgrass, Brazil [3, 18] | Plant response rating, Morningglory [10, 25] | Plant response rating, Pigweed, Palmer [13, 29] | Plant response rating, Soybean (soybean (Glycine max); [16])
70: Plant response rating, Field Bindweed [5, 20] | Plant response rating, Panicum, Fall [12, 19] | Plant response rating, Pigweed, Palmer [13, 19]
65: Plant response rating, Pigweed, Palmer [13, 23]
50: Plant response rating, Arrowleaf Sida [1, 16] | Plant response rating, Barnyardgrass [2, 22] | Plant response rating, Field Bindweed [5, 17] | Plant response rating, Field Bindweed [5, 21] | Plant response rating, Panicum, Fall [12, 17] | Plant response rating, Panicum, Fall [12, 21]
10: Plant response rating, Barnyardgrass [2, 20]
20: Plant response rating, Crabgrass, Brazil [3, 16] | Plant response rating, Crabgrass, Brazil [3, 20] | Plant response rating, Johnsongrass [9, 27] | Plant response rating, Soybean (soybean (Glycine max); [18]) | Plant response rating, Soybean (soybean (Glycine max); [20])
60: Plant response rating, Arrowleaf Sida [1, 18] | Plant response rating, Arrowleaf Sida [1, 19] | Plant response rating, Barnyardgrass [2, 19] | Plant response rating, Crabgrass, Brazil [3, 23] | Plant response rating, Horseweed [8, 28]
90: Plant response rating, Arrowleaf Sida [1, 23] | Plant response rating, Field Bindweed [5, 19] | Plant response rating, Field Bindweed [5, 22] | Plant response rating, Ragweed [14, 16]
30: Plant response rating, Barnyardgrass [2, 16] | Plant response rating, Pigweed, Palmer [13, 18] | Plant response rating, Soybean (soybean (Glycine max); [19])
95: Plant response rating, Barnyardgrass [2, 23] | Plant response rating, Panicum, Fall [12, 23] | Plant response rating, Ragweed [14, 17] | Plant response rating, Ragweed [14, 18] | Plant response rating, Ragweed [14, 19]
55: Plant response rating, Panicum, Fall [12, 16] | Plant response rating, Panicum, Fall [12, 18]
0: Plant response rating, Arrowleaf Sida [1, 17] | Plant response rating, Arrowleaf Sida [1, 21] | Plant response rating, Barnyardgrass [2, 17] | Plant response rating, Barnyardgrass [2, 21] | Plant response rating, Crabgrass, Brazil [3, 17] | Plant response rating, Crabgrass, Brazil [3, 21] | Plant response rating, Crabgrass, Brazil [3, 22] | Plant response rating, Crabgrass, Large [4, 24] | Plant response rating, Crabgrass, Large [4, 25] | Plant response rating, Crabgrass, Large [4, 26] | Plant response rating, Foxtail, Giant [6, 24] | Plant response rating, Foxtail, Giant [6, 25] | Plant response rating, Goosegrass [7, 24] | Plant response rating, Goosegrass [7, 25] | Plant response rating, Goosegrass [7, 26] | Plant response rating, Goosegrass [7, 27] | Plant response rating, Johnsongrass [9, 24] | Plant response rating, Johnsongrass [9, 25] | Plant response rating, Johnsongrass [9, 26] | Plant response rating, Pigweed, Palmer [13, 17] | Plant response rating, Pigweed, Palmer [13, 21] | Plant response rating, Soybean (soybean (Glycine max); [17]) | Plant response rating, Soybean (soybean (Glycine max); [29]) | Plant response rating, Soybean (soybean (Glycine max); [21]) | Plant response rating, Surinam Grass [15, 24] | Plant response rating, Surinam Grass [15, 25]
98: Plant response rating, Nightshade [11, 24] | Plant response rating, Ragweed [14, 29]
85: Plant response rating, Field Bindweed [5, 18]
35: Plant response rating, Crabgrass, Large [4, 27] | Plant response rating, Pigweed, Palmer [13, 16] | Plant response rating, Pigweed, Palmer [13, 20] | Plant response rating, Surinam Grass [15, 28] | Plant response rating, Surinam Grass [15, 27]
80: Plant response rating, Foxtail, Giant [6, 27] | Plant response rating, Nightshade [11, 25] | Plant response rating, Panicum, Fall [12, 29] | Plant response rating, Ragweed [14, 20] | Plant response rating, Ragweed [14, 21]
75: Plant response rating, Arrowleaf Sida [1, 22] | Plant response rating, Field Bindweed [5, 16] | Plant response rating, Horseweed ([8]; 250 g ai/ha, scale 0 to 100 (0 no effect, 100 complete control)) | Plant response rating, Morningglory [10, 24]

Reference: US10597388B2, “Pyridazinone herbicides” (FMC CORPORATION, priority 2014, dated 2020)
